{"source": "patent US7439223B2", "about": "“Nucleophosmin/B23-binding peptide to inhibit tumor growth and regulate transcriptional activity of p53” (Chang Gung University, priority 2005, dated 2008)", "key": {"[1]": {"test_system": "nucleophosmin/B23", "conditions": "cited from earlier work"}, "[2]": {"test_system": "p53", "test": "p53 expression level by western blotting in U1 cells", "format": "cell-based", "conditions": "25-150 μM for 3 hours or 50 μM for 0.2-7 hours", "method": "p53 protein is known to suppress tumor formation in vivo at least in part through its ability to induce cell death. The susceptibility of tumor cells to induction of cell death by cytotoxic drugs is modulated by p53 in many cases. It is then important for us to test whether the anti-tumor activity of nucleophosmin/B23-binding peptide is mediated through a p53 dependent regulation. […] The expression levels of p53 were measured by western blotting. […] In parallel, we transfected cells with a plasmid containing the luciferase reporter gene under the control of an artificial p53 target promoter (pGL13). […] Moreover, we analyzed whether the level of p53 changes upon siRNA mediated reduction of the intracellular amount of nucleophosmin/B23. […]\n(§1) FIGS. 3A-3F illustrate Nucleophosmin/B23 regulates the increase in protein expression of p53. […] Total cell lysates were analyzed by western immunoblotting using antibodies specific for p53 and GAPDH. […] Total cell lysates were analyzed by Western immunoblotting using antibodies specific for nucleophosmin/B23, p53 and GAPDH. […] After 3 hours, cells were harvested and were analyzed by Western immunoblotting using antibodies specific for p53 and GAPDH. […] The cell extracts containing equal amounts of proteins were analyzed for CAT activity and luciferase activities. […]"}, "[3]": {"test_system": "Ras-3T3 cells", "test": "cytotoxic effect of peptides on Ras-3T3 cell viability", "format": "cell-based", "conditions": "for effect on cellular viability: 25 to 400 μM", "method": "(§2) Regarding the cells and antibodies, MGH-U1 was established from a Grade III bladder transitional cell carcinoma. U1 and Ras-3T3 cells were grown in RPMI 1640 medium supplemented with 10% fetal bovine serum and 1% antibiotics in 5% CO2 humidified incubator at 37° C. The number of viable cells was determined by trypan blue exclusion and counted with a hemocytometer. Antinucleophosmin/B23 mAb, Anti-p53 polyclonal antibody (pAb) and anti-GAPDH were provided.\nRev-NLS (Rev), T-NLS and np-NLS peptides were synthesized. The primary sequences of the peptides and the dissociation constants of their interactions with nucleophosmin/B23 are shown in FIG. 4. Rev, T-NLS, and np-NLS peptides were applied to Ras-3T3 cells in parallel experiments at concentrations ranging from 25 to 400 μM.\nIn summary a review of the Figures is given. FIGS. 1A-1D, illustrate Nucleophosmin/B23-binding peptide inhibits tumor growth of Ras-3T3 cells and tumors in nude mice. […] After 24 hours of exposure, cells were counted and survival was expressed as the percentage of surviving cells relative to the untreated cells. Data represent means ±standard deviations; n=3. […] The colonies were stained and scored 12 days after seeding and the efficiencies were calculated as the percentage relative to the untreated cells. Values were expressed as the means ± standard deviations for three determinations. […] Mean tumor volume ±standard deviation for each treatment group was plotted (n=5). Statistical differences in tumor volumes were determined by Student's t-test. […] Tumor volumes of Rev- and PBS-treated (control) mice were plotted (n=5). A Student's t-test was used for statistical analysis. Results shown are representative of three independent experiments."}, "[4]": {"test_system": "p53", "test": "p53-dependent luciferase reporter (pGL13) in U1 cells", "format": "cell-based", "conditions": "50-150 μM for 3 hours", "text": "pp53-TA-Luc contains a p53 response element, located upstream of the minimal TA promoter, the TATA box from the herpes simplex virus thymidine kinase promoter (PTA). Located downstream of PTA is the firefly luciferase reporter gene. Double stranded siRNA oligonucleotides against B23, siB23-297 (sense: 5′-[…]; and antisense: […]), and siB23-191 (sense 5′-[…] and antisense: […]) were synthesized. Two oligonucleotides were annealed and cloned into pSilencer™ siRNA expression vector by EcoR1 and Apa1.\nTransfections were performed using Lipofectamine™ Reagent method. Before transfection, cells (2×10^5 per well) were seeded in 6-well plates overnight. […]\np53 protein is known to suppress tumor formation in vivo at least in part through its ability to induce cell death. […] The expression levels of p53 were measured by western blotting. […] Moreover, we analyzed whether the level of p53 changes upon siRNA mediated reduction of the intracellular amount of nucleophosmin/B23. […]\nFIGS. 3A-3F illustrate Nucleophosmin/B23 regulates the increase in protein expression of p53. […] Total cell lysates were analyzed by western immunoblotting using antibodies specific for p53 and GAPDH. […] Total cell lysates were analyzed by Western immunoblotting using antibodies specific for nucleophosmin/B23, p53 and GAPDH. […] The cell extracts containing equal amounts of proteins were analyzed for CAT activity and luciferase activities. […]"}, "[5]": {"test_system": "tumors induced by Ras-3T3 cells", "test": "nude mouse xenograft assay, intraperitoneal treatment", "format": "in vivo, nude mice", "conditions": "10 mg/20 g body weight intraperitoneally once daily for 14 days, vs PBS", "method": "Exponentially growing Ras-3T3 cells were harvested, washed and resuspended in PBS at 3×10^6 cells/ml. Tumor xenografts were established by inoculating one hundred microliters (100 μl) of the cell suspension subcutaneously into the right flanks of the nude mice. To assay the antitumor activity of Rev, T-NLS, and np-NLS peptides, they were administered to tumors as a systemic intraperitoneal or as a local subcutaneous treatment. For intraperitoneal treatment, mice were randomized into 4 groups of 5 animals after grafting.\nAnimals were treated once daily for 14 days beginning 48 hr after the inoculation of Ras-3T3 cells. […] Three-dimensional measurements were taken with electric caliper and the tumor volumes were calculated using the formula, V=4πxyz/3, where 2x, 2y and 2z were the three perpendicular diameters of the tumor. […] Statistical differences in the tumor volumes were analyzed by the student's t-test. […]\nNext, a nude mouse xenograft assay was used to evaluate the antitumor effect of peptides on the growth of tumors induced by Ras-3T3 cells. […] During the course of treatment, tumor growth was monitored daily by caliper measurement.\nIn summary a review of the Figures is given. […] After 24 hours of exposure, cells were counted and survival was expressed as the percentage of surviving cells relative to the untreated cells. […]"}, "[6]": {"test_system": "nucleophosmin/B23 over-expressed cells", "test": "cytotoxic effect on nucleophosmin/B23 over-expressed cells"}, "[7]": {"test_system": "Ras-3T3 cells", "test": "tumor growth in nude mice, DOX, Rev or DOX+Rev subcutaneously adjacent to the tumors", "format": "in vivo", "conditions": "20 μg/20 g body weight subcutaneously adjacent to the tumors daily for 5 days", "method": "Doxorubicin (DOX), an anthracycline anti-tumor antibiotic, is active against a number of human cancers.\nU1 (3×10^5) cells were treated with doxorubicin (DOX, 0.032-1.0 μg/ml). […] After 24 hr of exposure, cells were counted and survival was expressed as the percentage of surviving cells relative to the untreated cells. Data represent means ±standard deviations; n=3. In FIG. 2D, each mouse was inoculated with 3×10^5 Ras-3T3 cells (one site/mouse). […] Tumor volumes of DOX (20 μg/20 g body weight), Rev (1 mg/20 g body weight), DOX (10 μg/20 g body weight)+Rev (0.5 mg/20 g body weight) and PBS-treated (control) mice were plotted (n=5). The relative tumor volumes were expressed as percentages of the initial volumes at first day of treatments. *p<0.05, as compared with control mice. A Student's t-test was used for statistical analysis. Results shown are representative of three independent experiments."}, "[8]": {"test_system": "U1 bladder cancer cells", "test": "U1 bladder cancer cell viability", "format": "cell-based", "conditions": "24 hr, alone, read-out: concentration required to produce a 50% decrease in cell viability", "method": "as §2\nU1 (3×10^5) cells were treated with doxorubicin (DOX, 0.032-1.0 μg/ml). […] After 24 hr of exposure, cells were counted and survival was expressed as the percentage of surviving cells relative to the untreated cells. […] The relative tumor volumes were expressed as percentages of the initial volumes at first day of treatments. *p<0.05, as compared with control mice. […]\nas §1"}}, "note": "Ends that are not written are not given here.", "data": [{"compound": "KRPAATKKAGQAKKKKYC (listed as Homo sapiens) [np-NLS]", "values": [{"measurement": "binding affinity toward nucleophosmin/B23", "setting": "[1]; in words", "value": "no binding affinity"}, {"measurement": "intracellular amount of p53 (protein expression)", "setting": "[2]", "value": "No such increases"}, {"measurement": "effect on cellular viability", "setting": "[3]", "value": "little or virtually no effect"}, {"measurement": "activity against cells", "setting": "[3]; at 1 mM (data not shown)", "value": "no activity"}, {"measurement": "increase in p53-dependent transcription from the pGL13 promoter", "setting": "[4]", "value": "No such increases"}, {"measurement": "inhibition of tumor growth", "setting": "[5]", "value": "No inhibition of tumor growth"}]}, {"compound": "ARRNRRRRWREYC-NH2 [Rev peptide]", "values": [{"measurement": "dose needed to exert similar cytotoxic effect", "setting": "[6]", "value": "higher doses"}]}, {"compound": "COc1cccc2c1C(=O)c1c(O)c3c(c(O)c1C2=O)C[C@@](O)(C(=O)CO)C[C@@H]3O[C@H]1C[C@H](N)[C@H](O)[C@H](C)O1", "note": "[DOX, Doxorubicin]", "values": [{"measurement": "tumor growth versus PBS control", "setting": "[7]", "value": "grew more slowly"}, {"measurement": "IC50", "setting": "[8]", "value": 0.08, "unit": "µg/mL"}]}, {"compound": "PKKKRKVEDPYC [T-NLS, PKKKRKVE DPYC]", "values": [{"measurement": "Kd", "setting": "[1]; read-out: kd of interaction with nucleophosmin/B23", "value": 0.824, "unit": "µM"}, {"measurement": "effect on cellular viability", "setting": "[3]", "value": "little or virtually no effect"}, {"measurement": "IC50", "setting": "[3]; read-out: concentration at which there was a 50% decrease in cell viability", "value": "~1000", "unit": "µM"}, {"measurement": "inhibition of tumor growth", "setting": "[5]", "value": 63.6, "unit": "%"}]}]}
